These compounds were tested on IFNγ-Induced NO Production (assay: Nitric Oxide Suppression Assay (Suppression of IFNγ-Induced NO Production)). Conditions: RAW264.7; RAW 264.7 mouse macrophage cells; 2 hour pre-treatment with compound (3 μM to 0.3 nM, 10 point curve); 20 ng/mL interferon gamma, ~18 hour; Griess detection; n=2-3 in duplicates.
Assay type: cell-based
In short: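 Mouse RAW 264.7 macrophages pre-treated 2 h at 37 °C with compound (3 μM to 0.3 nM, 10 points; DMSO ≤1%), then stimulated with 20 ng/mL interferon gamma for ~18 h. Supernatant nitrite measured by Griess reaction, absorbance 520–550 nm. IC50 from curve fit of signal normalised to IFNγ alone, mean n=2-3 in duplicate.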

Q: How did the IC50 turn out when `Cc1nc(-c2cccc(-c3ccc(N)cc3)c2)c2c(n1)[C@@]1(c3ccccc3)C=C(C#N)C(=O)[C@@H](C)[C@@H]1CC2` [Example 118, (6aS,7S,10aR)-4-(4′-aminobiphenyl-3-yl)-2,7-dimethyl-8-oxo-10a-phenyl-5,6,6a,7,8,10a-hexahydrobenzo[h]quinazoline-9-carbonitrile] was run?
A: Its IC50 is 4.62 nM.

Q: With `Cc1nc(-c2cccc(-c3ccc(O)cc3)c2)c2c(n1)[C@@]1(c3ccccc3)C=C(C#N)C(=O)[C@@H](C)[C@@H]1CC2` [Example 119, (6aS,7S,10aR)-4-(4′-hydroxybiphenyl-3-yl)-2,7-dimethyl-8-oxo-10a-phenyl-5,6,6a,7,8,10a-hexahydrobenzo[h]quinazoline-9-carbonitrile] as the compound, how does the IC50 read?
A: The IC50 was 6.5 nM.

Q: With `C[C@@H]1C(=O)C(C#N)=C[C@]2(c3ccc(OCc4ccccc4)cc3)c3ncncc3CC[C@@H]12` [Example 120, (6aS,7S,10aR)-10a-[4-(benzyloxy)phenyl]-7-methyl-8-oxo-5,6,6a,7,8,10a-hexahydrobenzo[h]quinazoline-9-carbonitrile] as the compound, how does the IC50 read?
A: Its IC50 is 5.44 nM.

Q: How did the IC50 turn out when `C[C@@H]1C(=O)C(C#N)=C[C@]2(c3ccc(O)cc3)c3ncncc3CC[C@@H]12` [Example 121, (6aS,7S,10aR)-10a-(4-hydroxyphenyl)-7-methyl-8-oxo-5,6,6a,7,8,10a-hexahydrobenzo[h]quinazoline-9-carbonitrile] was run?
A: Its IC50 is 8.47 nM.

Q: For `Cc1nc(-c2ccc(-c3ccncc3)cc2)c2c(n1)[C@@]1(c3ccccc3)C=C(C#N)C(=O)[C@@H](C)[C@@H]1CC2` [Example 122, (6aS,7S,10aR)-2,7-dimethyl-8-oxo-10a-phenyl-4-[4-(pyridin-4-yl)phenyl]-5,6,6a,7,8,10a-hexahydrobenzo[h]quinazoline-9-carbonitrile], which IC50 is on record?
A: The IC50 was 12.7 nM.

Q: With `C[C@@H]1C(=O)C(C#N)=C[C@]2(c3ccccc3)c3n[nH]c(-c4cccc(CCCO)c4)c3CC[C@@H]12` [Example 123, (5aS,6S,9aR)-3-[3-(3-hydroxypropyl)phenyl]-6-methyl-7-oxo-9a-phenyl-4,5,5a,6,7,9a-hexahydro-2H-benzo[g]indazole-8-carbonitrile] as the compound, how does the IC50 read?
A: The IC50 was 7.72 nM.

Q: `Cc1nc(-c2cccc(-c3cccc(NS(C)(=O)=O)c3)c2)c2c(n1)[C@@]1(c3ccccc3)C=C(C#N)C(=O)[C@@H](C)[C@@H]1CC2` [Example 124, N-{3′-[(6aS,7S,10aR)-9-cyano-2,7-dimethyl-8-oxo-10a-phenyl-5,6,6a,7,8,10a-hexahydrobenzo[h]quinazolin-4-yl]biphenyl-3-yl}methanesulfonamide] was tested. Which IC50 did it give?
A: Its IC50 is 1.35 nM.

Q: `CC(=O)OCCCc1cccc(-c2nc(C)nc3c2CC[C@H]2[C@H](C)C(=O)C(C#N)=C[C@]32c2ccccc2)c1` [Example 125, 3-{3-[(6aS,7S,10aR)-9-cyano-2,7-dimethyl-8-oxo-10a-phenyl-5,6,6a,7,8,10a-hexahydrobenzo[h]quinazolin-4-yl]phenyl}propyl acetate] was tested. Which IC50 did it give?
A: The IC50 was 4.69 nM.

Q: With `C[C@@H]1C(=O)C(C#N)=C[C@]2(c3ccccc3)c3n[nH]c(-c4cncc(CO)c4)c3CC[C@@H]12` [Example 126, (5aS,6S,9aR)-3-[5-(hydroxymethyl)pyridin-3-yl]-6-methyl-7-oxo-9a-phenyl-4,5,5a,6,7,9a-hexahydro-2H-benzo[g]indazole-8-carbonitrile] as the compound, how does the IC50 read?
A: The IC50 was 9.67 nM.

Q: How did the IC50 turn out when `Cc1nc(-c2cnn(CCO)c2)c2c(n1)[C@@]1(c3ccccc3)C=C(C#N)C(=O)[C@@H](C)[C@@H]1CC2` [Example 127, (6aS,7S,10aR)-4-[1-(2-hydroxyethyl)-1H-pyrazol-4-yl]-2,7-dimethyl-8-oxo-10a-phenyl-5,6,6a,7,8,10a-hexahydrobenzo[h]quinazoline-9-carbonitrile] was run?
A: Its IC50 is 2.27 nM.

Q: For `C[C@@H]1C(=O)C(C#N)=C[C@]2(c3cccc(OCc4ccccc4)c3)c3ncncc3CC[C@@H]12` [Example 128, (6aS,7S,10aR)-10a-[3-(benzyloxy)phenyl]-7-methyl-8-oxo-5,6,6a,7,8,10a-hexahydrobenzo[h]quinazoline-9-carbonitrile], which IC50 is on record?
A: The IC50 was 7.82 nM.

Q: For `Cc1nc(-c2ccc(-c3cncnc3)cc2)c2c(n1)[C@@]1(c3ccccc3)C=C(C#N)C(=O)[C@@H](C)[C@@H]1CC2` [Example 129, (6aS,7S,10aR)-2,7-dimethyl-8-oxo-10a-phenyl-4-[4-(pyrimidin-5-yl)phenyl]-5,6,6a,7,8,10a-hexahydrobenzo[h]quinazoline-9-carbonitrile], which IC50 is on record?
A: The IC50 was 13 nM.

Q: For `Cc1nc(-c2cncnc2)c2c(n1)[C@@]1(c3ccccc3)C=C(C(N)=O)C(=O)[C@@H](C)[C@@H]1CC2` [Example 130, (6aS,7S,10aR)-2,7-dimethyl-8-oxo-10a-phenyl-4-(pyrimidin-5-yl)-5,6,6a,7,8,10a-hexahydrobenzo[h]quinazoline-9-carboxamide], which IC50 is on record?
A: The IC50 was over 3000 nM.

Q: `C[C@@H]1C(=O)C(C(N)=O)=C[C@]2(c3ccccc3)c3ncncc3CC[C@@H]12` [Example 131, (6aS,7S,10aR)-7-methyl-8-oxo-10a-phenyl-5,6,6a,7,8,10a-hexahydrobenzo[h]quinazoline-9-carboxamide] was tested. Which IC50 did it give?
A: The IC50 was 1390 nM.

Q: How did the IC50 turn out when `Cc1nc(-c2cnc(O)c(Br)c2)c2c(n1)[C@@]1(c3ccccc3)C=C(C#N)C(=O)[C@@H](C)[C@@H]1CC2` [Example 132, (6aS,7S,10aR)-4-(5-bromo-6-hydroxypyridin-3-yl)-2,7-dimethyl-8-oxo-10a-phenyl-5,6,6a,7,8,10a-hexahydrobenzo[h]quinazoline-9-carbonitrile] was run?
A: The IC50 was 387 nM.

Q: `Cc1nc(-c2ccc(O)nc2)c2c(n1)[C@@]1(c3ccccc3)C=C(C#N)C(=O)[C@@H](C)[C@@H]1CC2` [Example 133, (6aS,7S,10aR)-4-(6-hydroxypyridin-3-yl)-2,7-dimethyl-8-oxo-10a-phenyl-5,6,6a,7,8,10a-hexahydrobenzo[h]quinazoline-9-carbonitrile] was tested. Which IC50 did it give?
A: Its IC50 is 311 nM.

Q: How did the IC50 turn out when `COC(=O)c1ccc(-c2cccc(-c3nc(C)nc4c3CC[C@H]3[C@H](C)C(=O)C(C#N)=C[C@]43c3ccccc3)c2)cc1` [Example 134, methyl 3′-[(6aS,7S,10aR)-9-cyano-2,7-dimethyl-8-oxo-10a-phenyl-5,6,6a,7,8,10a-hexahydrobenzo[h]quinazolin-4-yl]biphenyl-4-carboxylate] was run?
A: Its IC50 is 6.9 nM.

Q: Which IC50 does the source give for `Cc1nc(-c2cccc(-c3ccc(C(N)=O)cc3)c2)c2c(n1)[C@@]1(c3ccccc3)C=C(C#N)C(=O)[C@@H](C)[C@@H]1CC2` [Example 135, 3′-[(6aS,7S,10aR)-9-cyano-2,7-dimethyl-8-oxo-10a-phenyl-5,6,6a,7,8,10a-hexahydrobenzo[h]quinazolin-4-yl]biphenyl-4-carboxamide] here?
A: The IC50 was 8.22 nM.

Q: Which IC50 does the source give for `C[C@@H]1C(=O)C(C#N)=C[C@]2(c3ccccc3)c3nc(-c4ccc(C(N)=O)cc4)ncc3CC[C@@H]12` [Example 136, 4-[(6aS,7S,10aR)-9-cyano-7-methyl-8-oxo-10a-phenyl-5,6,6a,7,8,10a-hexahydrobenzo[h]quinazolin-2-yl]benzamide] here?
A: The IC50 was 3.37 nM.

Q: How did the IC50 turn out when `C[C@@H]1C(=O)C(C#N)=C[C@]2(c3cccc(O)c3)c3ncncc3CC[C@@H]12` [Example 137, (6aS,7S,10aR)-10a-(3-hydroxyphenyl)-7-methyl-8-oxo-5,6,6a,7,8,10a-hexahydrobenzo[h]quinazoline-9-carbonitrile] was run?
A: The IC50 was 8.93 nM.

Q: `C[C@@H]1C(=O)C(C#N)=C[C@]2(c3ccccc3)c3nc(-c4ccc(C(=O)N(C)C)cc4)ncc3CC[C@@H]12` [Example 138, 4-[(6aS,7S,10aR)-9-cyano-7-methyl-8-oxo-10a-phenyl-5,6,6a,7,8,10a-hexahydrobenzo[h]quinazolin-2-yl]-N,N-dimethylbenzamide] was tested. Which IC50 did it give?
A: The IC50 was 5.26 nM.

Q: Which IC50 does the source give for `Cc1nc(-c2ccc(-c3cncn3C)cc2)c2c(n1)[C@@]1(c3ccccc3)C=C(C#N)C(=O)[C@@H](C)[C@@H]1CC2` [Example 139, (6aS,7S,10aR)-2,7-dimethyl-4-[4-(1-methyl-1H-imidazol-5-yl)phenyl]-8-oxo-10a-phenyl-5,6,6a,7,8,10a-hexahydrobenzo[h]quinazoline-9-carbonitrile] here?
A: Its IC50 is 19 nM.

Q: For `C[C@@H]1C(=O)C(C#N)=C[C@]2(c3ccccc3)c3n[nH]c(-c4ccnnc4)c3CC[C@@H]12` [Example 140, (5aS,6S,9aR)-6-methyl-7-oxo-9a-phenyl-3-(pyridazin-4-yl)-4,5,5a,6,7,9a-hexahydro-2H-benzo[g]indazole-8-carbonitrile], which IC50 is on record?
A: Its IC50 is 8.45 nM.

Q: Which IC50 does the source give for `C[C@@H]1C(=O)C(C#N)=C[C@]2(c3ccccc3)c3n[nH]c(-c4cnn(CC(=O)O)c4)c3CC[C@@H]12` [Example 141, {4-[(5aS,6S,9aR)-8-cyano-6-methyl-7-oxo-9a-phenyl-4,5,5a,6,7,9a-hexahydro-2H-benzo[g]indazol-3-yl]-1H-pyrazol-1-yl}acetic acid] here?
A: The IC50 was 4 nM.

Q: For `COC(=O)c1cccc([C@]23C=C(C(N)=O)C(=O)[C@@H](C)[C@@H]2CCc2cncnc23)c1` [Example 142, methyl 3-[(6aS,7S,10aR)-9-carbamoyl-7-methyl-8-oxo-6,6a,7,8-tetrahydrobenzo[h]quinazolin-10a(5H)-yl]benzoate], which IC50 is on record?
A: Its IC50 is 2280 nM.

Q: For `C[C@@H]1C(=O)C(C#N)=C[C@]2(c3ccccc3)c3nn(C)c(-c4ccc(-c5ccncc5)cc4)c3CC[C@@H]12` [Example 143, (5aS,6S,9aR)-2,6-dimethyl-7-oxo-9a-phenyl-3-[4-(pyridin-4-yl)phenyl]-4,5,5a,6,7,9a-hexahydro-2H-benzo[g]indazole-8-carbonitrile], which IC50 is on record?
A: The IC50 was 69.3 nM.

Q: `C[C@@H]1C(=O)C(C#N)=C[C@]2(c3ccccc3)c3nn(C)c(-c4ccc(-c5cncnc5)cc4)c3CC[C@@H]12` [Example 144, (5aS,6S,9aR)-2,6-dimethyl-7-oxo-9a-phenyl-3-[4-(pyrimidin-5-yl)phenyl]-4,5,5a,6,7,9a-hexahydro-2H-benzo[g]indazole-8-carbonitrile] was tested. Which IC50 did it give?
A: Its IC50 is 18.1 nM.

Q: With `Cc1nc(-c2ccc(-c3cncnc3)cc2)c2c(n1)[C@@]1(c3ccccc3)C=C(C(N)=O)C(=O)[C@@H](C)[C@@H]1CC2` [Example 145, (6aS,7S,10aR)-2,7-dimethyl-8-oxo-10a-phenyl-4-[4-(pyrimidin-5-yl)phenyl]-5,6,6a,7,8,10a-hexahydrobenzo[h]quinazoline-9-carboxamide] as the compound, how does the IC50 read?
A: The IC50 was over 1000 nM.

Reference: patent publication US9464082B2, “Aryl and arylalkyl substituted pyrazolyl and pyrimidinyl tricyclic enones as antioxidant inflammation modulators” (AbbVie Inc., priority 2014, dated 2016)
